Patent US8318495B1, “Hematopoietic progenitor cell gene transduction” (Case Western Reserve University, priority 1998, dated 2012)
“And” between values parts separate entries of the source, which are not always exact repeats. Identical values can stand only once. Like-named read-outs stand apart in the source and are kept apart here.

Experiments:
[1] = tested on: ΔMGMT transduced hematopoietic CD34+ progenitor cells; test: Drug resistance: CFU survival after BG plus TMZ or BCNU, ΔMGMT transduced cells; type: cell-based, human; settings: for IC50 / IC90: Homo sapiens, 10 μM BG 1 hour, then drug 2 hours
From the text: CD34+ cells were transduced with MFG-ΔMGMT high titer retroviral supernatant obtained as described in Reese et al. 1996. ΔMGMT encodes a mutant form of O-^6 alkylguanine DNA alkyltransferase (ΔAGT) and contains a point mutation which renders the protein resistant to the inhibitor O^6-benzylguanine (BG). CD34+ cells transduced with ΔMGMT are resistant to the drug combinations BG and 1,3bis(2-chloroethly)-1-nitrosourea (BCNU) (Reese et al. 1996) and BG and temozolomide (TMZ) (Reese et al. 1998). The CD34+ cells were transduced as follows: pMFG-wtMGMT or pMFG-ΔMGMT and pSV2neo DNA were cotransfected into the packaging line GP+E86, followed by viral supernatant infection of the amphotropic cell line GP+envAm12 (Markowitz, D. et al. 1988) (Arthur Bank, Columbia University). To increase titer, a supernatant “ping-pong” method was used (Bodine et al. 1990).
(§1) Drug resistance conferred by ΔMGMT To evaluate drug resistance conferred by ΔMGMT, primary CFU survival at the TMZ or BCNU IC50 and IC90 in transduced or untransduced cells was compared. IC50 (or IC90) is the determination of CFU survival after exposure to TMZ or BCNU in the presence of the AGT inhibitor BG. Following a retroviral transduction period of 72-96 hours, hematopoietic CD34+ progenitor cells were pretreated for 1 hour with 10 μM BG followed by increasing concentrations of TMZ or BCNU for 2 hours. Cells were washed free of drug, plated in methylcellulose and 5 μM BG was added to maintain depletion of endogenous AGT. After culture in methylcellulose, the colonies formed were counted as either CFU-GM, BFU-E and CFU-GEMM (referred to as CFU). Individual CFU were collected from 10 independent experiments, each from a different donor.

[2] = tested on: untransduced hematopoietic CD34+ progenitor cells; test: Drug resistance: CFU survival after BG plus TMZ or BCNU, untransduced cells; type: cell-based; settings: Homo sapiens, 10 μM BG 1 hour, then drug 2 hours
Protocol: as §1

SMILES: O=NN(CCCl)C(=O)NCCCl [BCNU, 1,3bis(2-chloroethly)-1-nitrosourea]
- increase in the IC90 after exposure to BG ([1]; Dexter): 2.5 fold
- average increase in the IC50 after exposure to BG ([1]; Dexter (n=2)): 5.6 fold
- average fold increase in the IC50 after exposure to BG ([1]; FN (TMZ n=2, BCNU n=1)): 2.8 fold
- increase in the IC90 after exposure to BG ([1]; FN (TMZ n=2, BCNU n=1)): > 10 fold
- average increase in the IC50 after exposure to BG ([1]; allo MSC (n=1)): 2 fold
- increase in the IC90 after exposure to BG ([1]; allo MSC (n=1)): > 6 fold
- fold increase in ΔMGMT/untransduced CFU IC50 ([1]; stroma Allo MSC): 5.6 fold
- fold increase in ΔMGMT/untransduced CFU IC90 ([1]; stroma Allo MSC): >6 fold
- fold increase in ΔMGMT/untransduced CFU IC90 ([1]; stroma Dexter): 2.5 fold
- fold increase in ΔMGMT/untransduced CFU IC50 ([1]; stroma FN): 2.8 fold

SMILES: Cn1nnc2c(C(N)=O)ncn2c1=O [TMZ, temozolomide]
- IC50 ([2]; stroma Allo MSC): 25.5 µM
- IC90 ([2]; stroma Allo MSC): 48 µM
- IC90 ([2]; stroma FN): 29 µM
- IC50 ([2]; stroma auto MSC): 9.8 µM
- IC90 ([2]; stroma auto MSC): 29 µM
- average fold increase in the IC50 after exposure to BG ([1]; FN (TMZ n=2, BCNU n=1)): 7.7 fold
- increase in the IC90 after exposure to BG ([1]; FN (TMZ n=2, BCNU n=1)): > 8.2 fold
- IC50 ([1]; read-out: CFU IC50 ΔMGMT, stroma Allo MSC): 71 µM
- IC50 ([1]; read-out: CFU IC50 ΔMGMT, stroma FN): 123 µM
- IC50 ([1]; read-out: CFU IC50 ΔMGMT, stroma auto MSC): 64 µM
- IC90 ([1]; read-out: CFU IC90 ΔMGMT, stroma Allo MSC): > 300 µM
- IC90 ([1]; read-out: CFU IC90 ΔMGMT, stroma FN): > 300 µM
- IC90 ([1]; read-out: CFU IC90 ΔMGMT, stroma auto MSC): > 300 µM
- average fold increase in the IC50 after exposure to BG ([1]; allo MSC and auto MSC (n=4)): 5.2 fold
- increase in the IC90 after exposure to BG ([1]; allo MSC and auto MSC (n=4)): > 9.8 fold
- fold increase in ΔMGMT/untransduced CFU IC50 ([1]; stroma Allo MSC): 2.8 fold and 2.4 fold
- fold increase in ΔMGMT/untransduced CFU IC90 ([1]; stroma Allo MSC): >6 fold and >5.3 fold
- fold increase in ΔMGMT/untransduced CFU IC90 ([1]; stroma FN): >10.3 fold and >6 fold
- fold increase in ΔMGMT/untransduced CFU IC50 ([1]; stroma auto MSC): 6.5 fold and 8.9 fold
- fold increase in ΔMGMT/untransduced CFU IC90 ([1]; stroma auto MSC): >10.3 fold and 17.7 fold
